Source: ChEMBL document CHEMBL5465560, “Selectivity Literature for EUbOPEN Chemogenomic Library” (2024)

Columns and labels:
[1] = target: Serine/threonine-protein kinase N1 (Homo sapiens, UniProt Q16512); details: at 10 µM
[2] = target: Tyrosine-protein kinase Yes (Homo sapiens) (UniProt P07947); assay: Selectivity interaction (Ambit KINOMEscan and KiNATiv profiling in Jurkat cells) EUB0000090b YES1; type: cell-based; details: at 1 µM
[3] = target: Casein kinase I isoform gamma-1 (Homo sapiens) (UniProt Q9HCP0); assay: Selectivity interaction (KinomeScan (DiscoverX)) EUB0000655a CSNK1G1; details: at 10 µM
[4] = target: Tyrosine-protein kinase ABL1 (Homo sapiens, UniProt P00519); assay: Selectivity interaction (KinomeScan (DiscoverX)) EUB0000045b ABL1
[5] = target: T1, Receptor-interacting serine/threonine-protein kinase 4 (Homo sapiens) (UniProt P57078); details: at 10 µM
T1 sequence (whole entry): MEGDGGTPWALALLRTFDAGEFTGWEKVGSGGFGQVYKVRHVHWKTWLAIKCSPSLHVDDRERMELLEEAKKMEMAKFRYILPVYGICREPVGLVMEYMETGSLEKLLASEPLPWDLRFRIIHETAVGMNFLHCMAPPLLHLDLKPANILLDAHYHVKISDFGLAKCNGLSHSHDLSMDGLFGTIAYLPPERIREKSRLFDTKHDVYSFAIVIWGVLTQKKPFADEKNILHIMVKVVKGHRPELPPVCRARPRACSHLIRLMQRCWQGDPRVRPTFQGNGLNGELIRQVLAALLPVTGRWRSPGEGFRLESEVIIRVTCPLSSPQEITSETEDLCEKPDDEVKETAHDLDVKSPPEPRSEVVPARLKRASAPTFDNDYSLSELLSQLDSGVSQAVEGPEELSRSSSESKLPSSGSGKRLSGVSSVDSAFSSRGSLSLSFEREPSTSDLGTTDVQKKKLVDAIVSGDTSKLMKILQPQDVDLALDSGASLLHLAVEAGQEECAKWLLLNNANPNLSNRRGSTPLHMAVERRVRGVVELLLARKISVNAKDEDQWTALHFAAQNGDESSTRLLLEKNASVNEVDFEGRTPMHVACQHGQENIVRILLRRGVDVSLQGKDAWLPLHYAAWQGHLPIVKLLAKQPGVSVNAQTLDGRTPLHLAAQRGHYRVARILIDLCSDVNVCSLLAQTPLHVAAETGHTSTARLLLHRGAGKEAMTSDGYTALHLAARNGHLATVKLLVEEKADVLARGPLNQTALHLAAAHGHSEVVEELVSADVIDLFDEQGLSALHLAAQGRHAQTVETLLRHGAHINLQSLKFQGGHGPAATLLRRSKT

[6] = target: T2, Aurora kinase C (Homo sapiens) (UniProt Q9UQB9); assay: Selectivity interaction (ActivX KiNativ screen (kinase selectivity in THP-1 cell lysates)) EUB0000639a AURKC; type: subcellular; details: lysate
T2 sequence (whole entry): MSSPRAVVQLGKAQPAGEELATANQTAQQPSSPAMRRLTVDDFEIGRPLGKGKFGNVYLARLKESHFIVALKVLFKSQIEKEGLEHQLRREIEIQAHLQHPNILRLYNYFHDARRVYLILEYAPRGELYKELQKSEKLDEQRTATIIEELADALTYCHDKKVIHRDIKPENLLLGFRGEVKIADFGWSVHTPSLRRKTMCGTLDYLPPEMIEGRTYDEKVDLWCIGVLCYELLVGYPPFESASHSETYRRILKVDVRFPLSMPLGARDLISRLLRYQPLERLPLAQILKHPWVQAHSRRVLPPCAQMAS

[7] = target: Cyclin-dependent kinase 4 (Homo sapiens, UniProt P11802); assay: Selectivity interaction (ActivX KiNativ screen (kinase selectivity in THP-1 cell lysates)) EUB0000639a CDK4; type: subcellular; details: lysate
[8] = target: Phosphatidylinositol 4,5-bisphosphate 3-kinase catalytic subunit alpha isoform (Homo sapiens) (UniProt P42336); assay: Selectivity interaction (Kinase panel (Invitrogen)) EUB0000639a PIK3CA; details: at 200 nM
PXR (NR1I2) = PXR (NR1I2) (Homo sapiens, UniProt O75469); assay: Selectivity interaction (Panel of kinases, GPCRs, ion channels and transporters (enzymatic assay)) EUB0000223bCl NR1I2
[9] = target: Angiopoietin-1 receptor (Homo sapiens) (UniProt Q02763); assay: Selectivity interaction (KinomeScan (DiscoverX)) EUB0000666a TEK; details: at 10 µM
[10] = target: Tyrosine-protein kinase Srms (Homo sapiens) (UniProt Q9H3Y6); assay: Selectivity interaction (KinomeScan (DiscoverX)) EUB0000092b SRMS; details: at 10 µM
[11] = target: T3, Serine/threonine-protein kinase D1 (Homo sapiens) (UniProt Q15139); assay: Selectivity interaction (KinomeScan (DiscoverX)) EUB0000695a PRKD1; details: at 100 nM
T3 sequence (whole entry): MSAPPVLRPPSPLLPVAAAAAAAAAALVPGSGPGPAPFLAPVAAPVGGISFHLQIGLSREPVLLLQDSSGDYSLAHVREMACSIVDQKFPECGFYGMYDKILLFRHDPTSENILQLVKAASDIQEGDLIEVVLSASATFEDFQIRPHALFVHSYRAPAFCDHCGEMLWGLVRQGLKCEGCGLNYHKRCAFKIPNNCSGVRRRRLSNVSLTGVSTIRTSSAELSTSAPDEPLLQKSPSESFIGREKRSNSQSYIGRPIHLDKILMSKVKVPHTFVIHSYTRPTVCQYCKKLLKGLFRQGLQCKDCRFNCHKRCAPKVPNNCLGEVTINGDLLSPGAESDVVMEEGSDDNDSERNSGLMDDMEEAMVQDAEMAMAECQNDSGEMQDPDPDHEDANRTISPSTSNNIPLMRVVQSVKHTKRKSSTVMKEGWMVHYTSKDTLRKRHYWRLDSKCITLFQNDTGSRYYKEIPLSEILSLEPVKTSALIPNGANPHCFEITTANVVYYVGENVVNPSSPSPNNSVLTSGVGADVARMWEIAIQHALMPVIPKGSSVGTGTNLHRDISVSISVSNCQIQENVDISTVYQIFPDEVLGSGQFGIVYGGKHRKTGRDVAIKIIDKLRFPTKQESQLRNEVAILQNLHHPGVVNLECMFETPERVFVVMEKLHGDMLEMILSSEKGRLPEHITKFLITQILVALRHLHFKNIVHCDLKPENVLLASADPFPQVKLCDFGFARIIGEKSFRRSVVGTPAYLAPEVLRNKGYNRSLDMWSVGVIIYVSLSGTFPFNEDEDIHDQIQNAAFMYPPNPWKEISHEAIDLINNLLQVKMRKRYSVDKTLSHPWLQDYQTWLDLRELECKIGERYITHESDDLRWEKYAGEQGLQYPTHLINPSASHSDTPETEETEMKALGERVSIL

Cyclin-dependent kinase 4, sequence (P11802 whole entry, canonical isoform): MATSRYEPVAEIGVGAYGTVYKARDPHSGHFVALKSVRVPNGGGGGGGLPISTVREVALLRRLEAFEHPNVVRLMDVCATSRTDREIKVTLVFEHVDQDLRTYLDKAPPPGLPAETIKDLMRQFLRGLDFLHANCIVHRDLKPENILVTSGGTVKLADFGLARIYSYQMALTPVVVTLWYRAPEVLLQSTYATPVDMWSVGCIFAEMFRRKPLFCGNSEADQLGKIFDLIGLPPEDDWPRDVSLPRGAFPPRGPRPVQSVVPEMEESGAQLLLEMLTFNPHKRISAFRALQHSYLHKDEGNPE
Tyrosine-protein kinase ABL1, sequence (P00519 whole entry): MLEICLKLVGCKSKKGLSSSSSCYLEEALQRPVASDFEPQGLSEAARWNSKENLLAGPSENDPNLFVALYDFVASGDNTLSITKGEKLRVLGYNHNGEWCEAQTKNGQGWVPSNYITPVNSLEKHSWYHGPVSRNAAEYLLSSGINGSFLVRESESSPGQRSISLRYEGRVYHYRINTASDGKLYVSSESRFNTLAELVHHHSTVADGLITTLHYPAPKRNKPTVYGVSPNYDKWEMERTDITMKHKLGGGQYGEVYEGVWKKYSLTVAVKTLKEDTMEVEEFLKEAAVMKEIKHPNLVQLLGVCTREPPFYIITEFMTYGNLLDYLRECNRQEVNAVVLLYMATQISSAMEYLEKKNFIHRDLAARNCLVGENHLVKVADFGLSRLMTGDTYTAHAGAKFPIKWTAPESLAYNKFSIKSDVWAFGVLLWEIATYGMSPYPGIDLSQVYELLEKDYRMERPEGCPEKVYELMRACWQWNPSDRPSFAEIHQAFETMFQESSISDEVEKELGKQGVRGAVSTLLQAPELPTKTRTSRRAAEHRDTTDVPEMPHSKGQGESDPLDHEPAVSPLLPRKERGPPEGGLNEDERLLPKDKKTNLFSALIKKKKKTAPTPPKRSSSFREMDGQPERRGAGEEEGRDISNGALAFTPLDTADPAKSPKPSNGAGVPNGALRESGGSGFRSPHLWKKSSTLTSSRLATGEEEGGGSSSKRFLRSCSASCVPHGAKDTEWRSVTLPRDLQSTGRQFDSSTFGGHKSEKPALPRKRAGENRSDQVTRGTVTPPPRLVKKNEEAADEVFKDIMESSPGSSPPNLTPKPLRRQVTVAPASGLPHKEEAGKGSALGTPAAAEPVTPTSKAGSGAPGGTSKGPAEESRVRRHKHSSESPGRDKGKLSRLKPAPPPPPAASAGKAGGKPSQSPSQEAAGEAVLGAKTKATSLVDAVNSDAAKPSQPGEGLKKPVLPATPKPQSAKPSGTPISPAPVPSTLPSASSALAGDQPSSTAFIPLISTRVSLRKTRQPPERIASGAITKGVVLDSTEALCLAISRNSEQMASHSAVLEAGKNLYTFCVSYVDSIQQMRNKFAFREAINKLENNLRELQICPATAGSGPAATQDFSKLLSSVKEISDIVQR
Casein kinase I isoform gamma-1 (Homo sapiens), sequence (Q9HCP0 whole entry, looked up, canonical isoform): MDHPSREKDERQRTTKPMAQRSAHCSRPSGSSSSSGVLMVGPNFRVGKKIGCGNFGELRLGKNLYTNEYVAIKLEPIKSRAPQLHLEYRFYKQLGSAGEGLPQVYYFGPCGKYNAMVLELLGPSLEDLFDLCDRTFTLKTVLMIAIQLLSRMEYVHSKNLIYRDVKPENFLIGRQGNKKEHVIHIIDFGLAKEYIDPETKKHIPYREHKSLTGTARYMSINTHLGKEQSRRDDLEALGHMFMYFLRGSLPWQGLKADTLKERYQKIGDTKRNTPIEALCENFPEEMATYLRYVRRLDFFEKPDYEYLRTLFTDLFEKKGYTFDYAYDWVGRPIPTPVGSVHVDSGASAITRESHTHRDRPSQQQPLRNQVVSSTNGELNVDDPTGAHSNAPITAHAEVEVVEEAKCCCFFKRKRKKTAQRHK
Tyrosine-protein kinase Yes (Homo sapiens), sequence (P07947 2-543 limits assumed): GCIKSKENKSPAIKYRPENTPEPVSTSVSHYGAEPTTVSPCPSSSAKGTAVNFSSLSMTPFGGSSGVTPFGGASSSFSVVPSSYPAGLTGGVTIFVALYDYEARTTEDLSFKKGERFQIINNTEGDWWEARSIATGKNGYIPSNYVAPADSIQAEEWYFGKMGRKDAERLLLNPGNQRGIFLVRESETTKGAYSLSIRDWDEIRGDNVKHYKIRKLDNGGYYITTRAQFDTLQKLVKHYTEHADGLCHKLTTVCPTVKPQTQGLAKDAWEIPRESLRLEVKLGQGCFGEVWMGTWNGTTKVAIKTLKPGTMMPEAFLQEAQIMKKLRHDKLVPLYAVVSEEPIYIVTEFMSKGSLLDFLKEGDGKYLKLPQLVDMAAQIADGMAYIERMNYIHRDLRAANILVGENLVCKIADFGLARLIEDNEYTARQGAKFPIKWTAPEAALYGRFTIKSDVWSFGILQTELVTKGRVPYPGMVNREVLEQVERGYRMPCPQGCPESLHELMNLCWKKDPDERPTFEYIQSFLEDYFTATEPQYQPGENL
PXR (NR1I2), sequence (O75469 whole entry): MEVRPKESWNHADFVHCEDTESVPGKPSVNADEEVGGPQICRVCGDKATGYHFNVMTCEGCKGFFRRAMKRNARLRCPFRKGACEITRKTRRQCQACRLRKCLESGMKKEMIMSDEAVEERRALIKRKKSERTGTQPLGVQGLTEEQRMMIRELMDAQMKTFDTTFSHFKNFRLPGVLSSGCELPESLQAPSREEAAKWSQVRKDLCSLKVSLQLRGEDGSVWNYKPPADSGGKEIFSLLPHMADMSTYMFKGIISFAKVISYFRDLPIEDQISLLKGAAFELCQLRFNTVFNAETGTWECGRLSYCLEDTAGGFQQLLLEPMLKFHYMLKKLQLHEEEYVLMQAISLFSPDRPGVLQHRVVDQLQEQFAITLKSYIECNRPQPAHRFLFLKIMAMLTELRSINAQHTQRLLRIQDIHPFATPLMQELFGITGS
Tyrosine-protein kinase Srms (Homo sapiens), sequence (Q9H3Y6 whole entry): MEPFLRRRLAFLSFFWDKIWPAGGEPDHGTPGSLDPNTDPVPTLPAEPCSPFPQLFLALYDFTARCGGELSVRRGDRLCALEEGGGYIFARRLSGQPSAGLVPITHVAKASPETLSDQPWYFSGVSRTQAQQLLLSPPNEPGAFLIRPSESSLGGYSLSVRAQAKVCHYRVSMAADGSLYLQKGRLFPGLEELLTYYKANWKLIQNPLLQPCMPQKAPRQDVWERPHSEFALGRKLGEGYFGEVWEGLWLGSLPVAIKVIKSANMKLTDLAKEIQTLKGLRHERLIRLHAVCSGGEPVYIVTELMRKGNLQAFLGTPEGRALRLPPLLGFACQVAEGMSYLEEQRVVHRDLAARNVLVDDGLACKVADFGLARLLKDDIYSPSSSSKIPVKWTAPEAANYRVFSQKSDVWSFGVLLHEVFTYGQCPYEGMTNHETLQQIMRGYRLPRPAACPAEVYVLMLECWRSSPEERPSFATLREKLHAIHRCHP
Angiopoietin-1 receptor (Homo sapiens), sequence (Q02763 whole entry): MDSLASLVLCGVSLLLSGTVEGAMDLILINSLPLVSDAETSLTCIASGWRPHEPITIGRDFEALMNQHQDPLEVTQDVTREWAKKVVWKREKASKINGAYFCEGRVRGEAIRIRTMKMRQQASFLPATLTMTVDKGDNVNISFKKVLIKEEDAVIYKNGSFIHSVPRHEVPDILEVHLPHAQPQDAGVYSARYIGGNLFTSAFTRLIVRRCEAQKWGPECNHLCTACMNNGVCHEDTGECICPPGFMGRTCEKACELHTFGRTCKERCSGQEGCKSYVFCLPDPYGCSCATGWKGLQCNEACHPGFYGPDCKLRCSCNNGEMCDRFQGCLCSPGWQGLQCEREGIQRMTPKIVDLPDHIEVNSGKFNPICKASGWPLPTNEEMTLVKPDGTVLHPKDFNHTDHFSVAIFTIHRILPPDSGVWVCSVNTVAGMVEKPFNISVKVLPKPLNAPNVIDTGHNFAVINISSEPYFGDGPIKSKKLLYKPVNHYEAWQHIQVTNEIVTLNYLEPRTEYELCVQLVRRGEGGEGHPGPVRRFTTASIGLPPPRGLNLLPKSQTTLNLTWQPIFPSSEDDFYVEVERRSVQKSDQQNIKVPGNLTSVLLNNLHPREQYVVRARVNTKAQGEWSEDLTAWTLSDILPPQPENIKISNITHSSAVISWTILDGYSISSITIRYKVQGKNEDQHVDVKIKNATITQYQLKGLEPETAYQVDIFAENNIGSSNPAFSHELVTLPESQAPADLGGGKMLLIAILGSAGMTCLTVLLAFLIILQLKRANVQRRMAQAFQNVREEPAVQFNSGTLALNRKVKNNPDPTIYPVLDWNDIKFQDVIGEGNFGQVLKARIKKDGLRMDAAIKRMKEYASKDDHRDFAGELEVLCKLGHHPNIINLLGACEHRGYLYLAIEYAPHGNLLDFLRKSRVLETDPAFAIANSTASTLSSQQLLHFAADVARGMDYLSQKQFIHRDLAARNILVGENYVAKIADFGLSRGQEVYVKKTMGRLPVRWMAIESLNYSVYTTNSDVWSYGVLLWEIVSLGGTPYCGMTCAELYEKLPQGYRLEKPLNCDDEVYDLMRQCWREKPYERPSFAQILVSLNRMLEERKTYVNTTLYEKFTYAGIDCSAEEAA

For `CCN(CC)CCCCNc1ncc2cc(-c3cc(OC)cc(OC)c3)c(NC(=O)NC(C)(C)C)nc2n1`, the % of control [1] was 100%.
With `CN(C)C/C=C/C(=O)Nc1ccc(C(=O)N2CCCC(Nc3ncc(Cl)c(-c4c[nH]c5ccccc45)n3)C2)cc1` (stereo unspecified) the % of control [2] was 94%.
Compound `CN(C)CCOc1ccc(-c2nc(-c3ccncc3)c(-c3ccc4c(c3)CC/C4=N\O)[nH]2)cc1` has a % of control [3] of 81%.
With `C=CC(=O)Nc1cc(-n2c(=O)ccc3cnc4ccc(-c5ccc(NS(C)(=O)=O)cc5)cc4c32)ccc1C` the % of control ([4]; at 1 µM) was 100% and the % of control ([4]; at 10 µM) was 73%.
In the case of `Cc1cc([C@@H](C)Nc2ccccc2C(=O)O)c2nc(N3CCOCC3)cc(=O)n2c1` [AZD-6482], the % of control [5] is reported as 99%.
With `CC[C@@H]1[C@H](F)C(=O)N[C@@H]1COc1nccc2cc(C(N)=O)c(OC)cc12` [ZIMLOVISERTIB] the % of inhibition ([6]; at 0.01 µM) was 4.9%, the % of inhibition ([6]; at 0.04 µM) was -1.3% and the % of inhibition ([6]; at 0.2 µM) was -1%. The % of inhibition ([6]; at 1 µM) was 20%, the % of inhibition ([6]; at 5 µM) was 64.4% and the % of inhibition ([7]; at 0.01 µM) was -1.8%. It also gave a % of inhibition ([7]; at 0.04 µM) of -3.4%, a % of inhibition ([7]; at 0.2 µM) of -2.3% and a % of inhibition ([7]; at 1 µM) of -9.6%. The % of inhibition ([7]; at 5 µM) was -24.4% and the % of inhibition [8] was 5.29%.
In the case of `COc1cc(C(=O)N2CC[C@@H](O)[C@@H](N)C2)cc2nc(-c3cc4ccccc4n3CC3CC3)n(C)c12`, the XC50 (PXR (NR1I2)) is reported as greater than 50.1 µM.
Compound `O=C(NOC[C@H](O)CO)c1ccc(F)c(F)c1Nc1ccc(I)cc1F` has a % of control [9] of 100%.
`CCC(=O)N1CCN(c2ccc(-n3c(=O)ccc4cnc5ccc(-c6cnc7ccccc7c6)cc5c43)cc2C(F)(F)F)CC1` was tested, and the % of control [10] was 92%.
In the case of `Cc1cc(F)c(C(=O)Nc2cccc(-c3nncn3C(C)C)n2)cc1-n1cnc(C2CC2)c1`, the % of control [11] is reported as 8.7%.
